From patent publication US7605164B2, “Compositions and methods for treating heart failure” (Cytokinetics, Inc., priority 2001, dated 2009)

melting point: 160 to 162 °C
Structure (SMILES): O=C(Nc1cc(Oc2cccnc2)cc(-c2ccccn2)c1)c1ccc(F)cc1 [Example 2, 4-Fluoro-N-[3-pyridin-2-yl-5-(pyridin-3-yloxy)-phenyl]-benzamide]
